Test: Radioligand Binding Assay: Binding of this radioligand was preformed in 5 mL borosilicate glass test tubes at room temperature. Binding was initiated by adding membranes to increasing concentrations of [3H]compound in 100 mMNaCl, 20 mMTrisHCl, pH 7.4 buffer containing 0.01% w/v bovine serum albumin (BSA) for 18 h. Non-specific binding was determined in the presence of 1 uM unlabelled compound. …
Set-up: species or system Homo sapiens
Description: Radioligand Binding Assay: Binding of this radioligand was preformed in 5 mL borosilicate glass test tubes at room temperature. […] Non-specific binding was determined in the presence of 1 uM unlabelled compound. […] [3H]compound bound to filters was quantified by liquid scintillation counting.

| IC50 [nM] | Structure (SMILES) |
| --- | --- |
| 14 | O=C(NS(O)(O)C1CC1)c1cc(C2CC2)c(CN2CCC(Oc3ccc(F)cc3Cl)CC2)cc1F |
| 6 | COC[C@H](c1cc(Cl)cc(Cl)c1)N1CCC[C@@H](Oc2cc(F)c(C(=O)NS(C)(=O)=O)cc2C2CC2)C1 |
